Where two headings read alike, the source gives them in different places.
Tests used:
[1] = tested on: T. cruzi Tulahuen strain C2C4; assay: In vitro activity against T. cruzi in L-6 host cells (beta-galactosidase/CPRG); format: cell-based, Trypanosoma cruzi; details: Trypanosoma cruzi, read-out: IC50 T. cruzi (Tcr)
Protocol: Trypanosoma cruzi. Rat skeletal myoblasts (L-6 cells) were seeded in 96-well microtiter plates at 2,000 cells/well in 100 µL RPMI 1640 medium with 10% FBS (fetal bovine serum) and 2 mM L-glutamine. After 24 hours the medium was removed and replaced by 100 µL per well containing 5,000 trypomastigote forms of T. cruzi Tulahuen strain C2C4 containing the β-galactosidase (Lac Z) gene. Fortyeight hours later the medium was removed from the wells and replaced by […] fresh medium with or without a serial drug dilution. Seven 3-fold dilutions were used covering a range from […]. Each drug was tested in duplicate. After 96 hours of incubation the plates were inspected under an inverted microscope to assure growth of the controls and sterility. Then the substrate CPRG/ Nonidet (50 µL) was added to all wells. A colour reaction developed within 2-6 hours and could be read photometrically at 540 nm.

[2] = tested on: Leishmania donovani amastigotes (strain MHOM/ET/67/L82); assay: L. donovani axenic amastigote assay (resazurin); format: cell-based; details: Leishmania donovani
Protocol: Leishmania donovani (axenic amastigote assay). […] Serial drug dilutions in duplicates were prepared covering a range from 30 to 0.041 µg/mL. […] The compounds used as positive controls in the various bioassays (see Table 1) were of commercial origin, with the exception of melarsoprol, which was a gift from WHO. Their purity (generally > 95%) was specified by the manufacturers.

[3] = tested on: Trypanosoma brucei rhodesiense STIB 900; assay: In vitro activity against T. brucei rhodesiense bloodstream forms (Alamar blue); format: cell-based; details: mean of two independent measurements
Protocol: (§1) Trypanosoma brucei rhodesiense and cytotoxicity against L6 cells. Minimum Essential Medium with Earle’s salts (50 µL) supplemented with 0.2 mM 2-mercapto-ethanol, 1 mM Na-pyruvate and 15% heat-inactivated horse serum was added to each well of a 96-well microtiter plate. […] Then 10^4 bloodstream forms of Trypanosoma brucei rhodesiense STIB 900 in 50 µL of medium were added to each well and the plate incubated at 37°C under a 5% CO2 atmosphere for 72 hours. […] The plate was then read in a Spectramax Gemini XS microplate fluorometer (Molecular Devices Corporation, Sunnyvale, CA, USA) using an excitation wavelength of 536 nm and emission wavelength of 588 nm. Fluorescence development was measured and expressed as percentage of the control. Data were transferred into the graphic programme Softmax Pro (Molecular Devices) which calculated IC50 values. Cytotoxicity was assessed using a similar protocol and rat skeletal myoblasts (L6 cells). […] All following steps were according to the T. b. rhodesiense protocol.

[4] = Cytotoxicity against L6 cells (Alamar blue); details: rat; for IC50: IC50 Cytotoxicity (L6), L6 rat skeletal myoblasts, 72 h, mean of two independent measurements
Protocol: as §1

[5] = tested on: K1 strain of P. falciparum; assay: Antiplasmodial [3H]-hypoxanthine incorporation assay; format: cell-based, Plasmodium falciparum; details: Plasmodium falciparum
Protocol: Plasmodium falciparum. Antiplasmodial activity was determined using the K1 strain of P. falciparum (resistant to chloroquine and pyrimethamine). A modification of the [3H]-hypoxanthine incorporation assay was used. Briefly, infected human red blood cells (final parasitaemia and haematocrit were 0.3% and 1.25%, respectively) in RPMI 1640 medium with 5% Albumax were exposed to serial drug dilutions in microtiter plates. After 48 hours of incubation at 37°C in a reduced oxygen atmosphere, 0.5 mCi 3H-hypoxanthine was added to each well. Cultures were incubated for a further 24 h before they were harvested onto glass-fiber filters and washed with distilled water. The radioactivity was counted using a BetaplateTM liquid scintillation counter (Wallac, Zurich, Switzerland). […] From the sigmoidal inhibition curves IC50 values were calculated. Assays were run in duplicate and repeated once.

[6] = TULAHUEN, L6, 96 h, Tulahuen C2C4 in L-6 cells, 96 h, mean of two independent measurements
[7] = 72 h, pH 5.4, axenic amastigotes, pH 5.4, 72 h, mean of two independent measurements, read-out: IC50 L. donovani (Ldon)
[8] = Trypanosoma brucei, 72 h, bloodstream forms STIB 900, 72 h, read-out: IC50 T. brucei rhodes. (Tbr)
[9] = L6 cells (rat skeletal myoblasts)
[10] = K1, K1 strain (resistant to chloroquine and pyrimethamine), mean of two independent measurements, read-out: IC50 P. falciparum (Pfc)
[11] = Trypanosoma brucei, 72 h, read-out: IC50 T. brucei rhodes. (Tbr), bloodstream forms STIB 900, 72 h
[12] = K1, read-out: IC50 P. falciparum (Pfc)

SMILES | IC50 [1, 6] [µM] | IC50 [2, 7] [µM] | IC50 [3, 8] [µM] | IC50 at 72 h [4, 9] [µM] | IC50 [5, 10] [µM] | other results
C=C(C(=O)OC1CC(C)=CCCC(CO)=CC2OC(=O)C(=C)C21)C(O)CO (stereo not drawn) [Compound 33] | 16.8 | 15.2 | 1.3 | 10.2 | 6.32 | 
C=C1C(=O)OC2C1CCC1(C)C(O)CCC(=C)C21 (stereo not drawn) [Compound 31] | 28.9 | 6.01 |  |  | 12.1 | IC50 ([3]; bloodstream forms STIB 900, 72 h, read-out: IC50 T. brucei rhodes. (Tbr)): 17.8 µM; IC50 [4]: 33.2 µM
C=C1C(=O)OC2CC(C)C3(O)C=C(C(C)=O)C4(CC3CC12)C(=O)OC1CC(C)C2(C=CC(C)=O)OC2CC14 (stereo not drawn) [Compound 22] | 95.4 | 26.9 | 1.29 | 13.3 | 6.53 | 
C=C1C(=O)O[C@@H]2C[C@@H](C)[C@@H]3C=CC(=O)[C@@]3(C)[C@@H](O)[C@H]12 [Compound 1, helenalin] |  |  |  |  |  | IC50 ([1]; TULAHUEN, L6, 96 h): 0.695 µM; IC50 [3, 11]: < 0.1 µM; IC50 ([3]; read-out: IC50 T. brucei rhodes. (Tbr), bloodstream forms STIB 900, 72 h): 0.052 µM; IC50 ([3]; read-out: IC50 T. brucei rhodes. (Tbr), bloodstream forms STIB 900, 72 h, listed as helenalin): 0.05 to 0.1 µM; IC50 at 72 h [4]: 0.992 µM
C=C1C(=O)OC2CC3(C)CCCC(C)C3=CC12 (stereo not drawn) [Compound 29] | 8.3 | 3.03 | 2.62 |  | 6.4 | IC50 at 72 h [4]: 5.99 µM
C=C1C(=O)OC2CC(C)C3C(OC(C)=O)CC(O)C3(COC(C)=O)CC12 (stereo not drawn) [Compound 16] | 44.9 | 11.8 | 13.6 | 21.6 | 10.7 | 
CCCCCCCCCCCCCCCCOP(=O)([O-])OCC[N+](C)(C)C [miltefosine, reference compound] |  | 0.27 |  |  |  | 
C=C1C(=O)OC2CC(C)C3C(O)CC(O)C3(C)CC12 (stereo not drawn) [Compound 11] | 52.7 | 20.6 | 18.3 | 31.9 | 12.1 | 
CC(C)CC(=O)OC1C2C(CC(C)C3C=CC(=O)C31C)OC(=O)C2C (stereo not drawn) [Compound 7] | 3.53 | 1.48 | 0.911 | 4.58 | 1.6 | 
C=C1C(=O)OC2CC3(C)C(CCC(C)=O)C3CC12 (stereo not drawn) [Compound 20] | 39 | 14.6 | 15.9 |  | 12.7 | IC50 at 72 h [4]: 19.8 µM
CC1=CCCC2(C)OC2C2OC(=O)C(C)C2CC1 (stereo not drawn) [Compound 35] | > 120 | 35.6 | 49 | 133 | > 20 | 
C=C1C(=O)OC2C=C(C)C(O)CC3OC3(C)CC(OC(=O)C(C)=CC)C12 (stereo not drawn) [Compound 38] | 16.5 | 18.2 | 0.942 | 13 | 8.81 | 
C=C1C(=O)OC2CC(C)C(CCC(C)=O)=CCC12 (stereo not drawn) [Compound 17] | > 120 | 23.8 | 62.1 | 179 | > 20 | 
C=C1C(=O)OC2CC(C)C3C=CC(=O)C3(C)C(OC(=O)CC(C)C)C12 (stereo not drawn) [Compound 4] |  |  | 0.116 |  |  | IC50 ([1]; L6, Tulahuen C2C4 in L-6 cells, 96 h, mean of two independent measurements): 2.48 µM; IC50 ([2]; axenic amastigotes, pH 5.4, 72 h, mean of two independent measurements, read-out: IC50 L. donovani (Ldon)): 0.871 µM; IC50 [4]: 1.3 µM; IC50 [5, 12]: 0.822 µM
CCN(CC)CCCC(C)Nc1ccnc2cc(Cl)ccc12 (stereo not drawn) [chloroquine, reference compound] |  |  |  |  |  | IC50 [5, 12]: 0.248 µM
C=C1C(=O)OC2CC(C)C3C=CC(=O)C3(C)C(O)C12 (stereo not drawn) [Compound 8] |  |  |  |  |  | IC50 ([1]; TULAHUEN, L6, 96 h): 1.87 µM; IC50 ([2]; 72 h, pH 5.4, read-out: IC50 L. donovani (Ldon)): > 4 µM; IC50 [3, 11]: 0.319 µM; IC50 at 72 h [4]: 2.44 µM
Nc1nc(N)nc(Nc2ccc([As]3SCC(CO)S3)cc2)n1 (stereo not drawn) [melarsoprol, reference compound] |  |  |  |  |  | IC50 [3, 11]: 0.008 µM

Source: PMC6254286, “Quantitative Structure − Antiprotozoal Activity Relationships of Sesquiterpene Lactones ^†” (Molecules, 2009)
